Values of other authors as cited in patent US20070253995A1, “Drug Delivery Methods and Devices for Treating Stress Urinary Incontinence” (Medtronic, Inc., priority 2006, published 2007).

System: women with stress urinary incontinence
Conditions: oral formulation

In the case of `CNCC[C@H](Oc1cccc2ccccc12)c1cccs1` [duloxetine], the “time for side effects to disappear after therapy initiation” value is given as 1 to 4 weeks, the “efficacy in treating stress urinary incontinence” value (Phase III clinical trial, women) is given as “effective” and the “side effects (mostly centrally mediated: nausea, headache, insomnia, dry mouth, dizziness, fatigue)” value (some patients) is given as “significant side effects in some patients”.
